Experiments:
[1] = system: mixed culture of 6 species of Gram negative bacteria; experiment: Survivor plate count in commercial shampoo after challenge; format: cell-based
Experimental: A sample of a commercial shampoo preparation (without preservative) was divided into three portions and, to a first portion of this shampoo, the following preservative system was added: • 0.3% (w/w) of a 30% w/w solution of DCHB in propylene glycol (resulting in a concentration of 0.09% of active DCHB).
To a further portion of the unpreserved shampoo, 0.3% (w/w) propylene glycol alone was added to ensure any observed bactericidal effect was due to DCHB.
20g portions of the unpreserved shampoo and the shampoo with the above additions were inoculated with 0.4 ml of a mixed culture of 6 species of Gram negative bacteria (including an isolate from a contaminated shampoo) to give an initial inoculum level of 2.14 x 10^7 colony forming units per g.
The inoculated samples were mixed by Vortex mixer and stored at room temperature. At regular timed intervals after challenge the total number of survivors in each sample portion were determined by serial dilution and plate counting (Nutrient Agar, 32°C) with the following results: […]

[2] = system: mixed culture of 7 strains of Gram negative bacteria; experiment: Survivor plate count in shampoo formulation after challenge; format: cell-based; settings: shampoo with 0.20% of 30% DCHB in propylene glycol (0.06% active DCHB)
Experimental: A shampoo formulation was prepared to the following formula: […]
Various additions were made to portions of this shampoo in sterile bottles under aseptic conditions, as follows: • 1. 0.20% of 30% DCHB in propylene glycol (0.06% active DCHB) • 2. 0.20% of 30% DCHB in propylene glycol + 0.05% citric acid • 3. 0.05% citric acid (control 1) • 4. No addition (control 2)
Each of these systems was inoculated with a mixed culture of 7 strains of Gram negative bacteria, at an initial inocullum level of 9.0x10^7 colony forming units per g. At 30 mins, 1 hour, 2 hours, 6 hours, 24 hours and 7 days after inoculation the total number of survivors in each sample portion were determined by serial dilution and plate counting; with the following results: […]

[3] = Acute oral toxicity; settings: rat, in vivo, rats
Text: It is important that preservatives added to toiletry, household and pharmaceutical products have a low order of toxicity.

[4] = Storage stability in shampoos, aqueous solutions and creams; format: physicochemical; settings: 0.3% (w/w) in shampoos, 25°C, in the light and in dark, seven months
Experimental: Samples of shampoos, aqueous solutions and creams with and without addition of DCHB at 0.3% (w/w) have been stored at 25°C, in the light and in dark, for seven months and have been assessed for visual colour change and for DCHB content, by UV analysis, at regular intervals.

[5] = Antimicrobial activity in the presence of proteins; settings: proteins such as serum and soluble collagen
[6] = commercial shampoo + 0.3% of 30% DCHB in propylene glycol (0.09% active DCHB)

With `O=Cc1cc(Cl)c(O)c(Cl)c1` [DCHB, 3,5-Dichloro-4-hydroxybenzaldehyde] the “Gram negative bacteria - Mixed Culture Colony forming units/g after: 1 day” value [1, 6] was <10 Colony forming units/g, the “Gram negative bacteria - Mixed Culture Colony forming units/g after: 7 days” value [1, 6] was <10 Colony forming units/g and the “Gram negative bacteria - Mixed Culture Colony forming units/g after: 14 days” value [1, 6] was <10 Colony forming units/g. For the same compound, the “Gram negative bacteria - Mixed Culture Colony forming units/g after: 28 days” value [1, 6] was <10 Colony forming units/g, the “Gram negative bacteria - Mixed Culture Colony forming units/g after: 3 hours” value ([1]; commercial shampoo + 0.3% of 30% DCHB in propylene glycol (0.09% active DCHB), initial inoculum 2.14 x 10^7 colony forming units per g) was 9.0x10^6 Colony forming units/g and the “bactericidal effect against normally resistant gram negative bacteria” value ([1]; shampoo containing 0.3 % of 30 % DCHB in propylene glycol) was “rapid and satisfactory bactericidal effect”. For the same compound, the “Mixed culture - colony forming units/g after: 1 hour” value [2] was 3.0x10^6 colony forming units/g, the “Mixed culture - colony forming units/g after: 2 hours” value [2] was 6.6x10^5 colony forming units/g and the “Mixed culture - colony forming units/g after: 6 hours” value [2] was 7.0x10^5 colony forming units/g. For the same compound, the “Mixed culture - colony forming units/g after: 24 hours” value [2] was 8.4x10^4 colony forming units/g, the “Mixed culture - colony forming units/g after: 7 days” value [2] was 10 colony forming units/g and the “Mixed culture - colony forming units/g after: 30 mins” value ([2]; initial inoculum 9.0x10^7 colony forming units per g) was 3.9x10^6 colony forming units/g. The LD50 [3] was > 5000 mg/kg, the “DCHB content, by UV analysis (UV absorption readings)” value [4] was “no significant change” and the visual colour change [4] was “no colour changes”. The “antimicrobial activity in the presence of proteins” value [5] was “retaining antimicrobial activity”.

From patent publication EP0193257A1, “Control of micro-organisms in water-containing compositions” (NIPA LABORATORIES, LTD., priority 1985, dated 1986)
